The values that follow come from publication PMC3609778, “Truncated and Helix-Constrained Peptides with High Affinity and Specificity for the cFos Coiled-Coil of AP-1” (PLoS ONE, 2013).

Series [1] can be described thus: Circular dichroism helicity of peptide in isolation (homotypic). It counts as physicochemical. The note with it: for Homotypic Ɵ222/208 (20ºC): CD ratio, 20 °C; for Homotypic Ɵ222/208 (20ºC) / Fraction helical (ƒH), homotypic: peptide in isolation; for Fraction helical (ƒH), homotypic: from CD molar residue ellipticity at 222 nm. The method, then: (§1) Circular dichroism (CD) spectroscopy was conducted with an Applied Photophysics Chirascan CD spectroploarimeter (Leatherhead, U.K.) using a 200 µL sample in a CD cell with a 1 mm path length (Hellma, Müllheim Germany). Samples contained 150 µM total peptide concentration suspended in 10 mM potassium phosphate and 100 mM potassium fluoride at pH 7. The CD spectra of the homodimeric and heterodimeric complexes were scanned between 300 nm and 190 nm at 20°C (for both pre- and post-melt samples to check for reversibility of unfolding) and at −8°C to assess helical levels and coiled-coil structure (see Figure 4).
(§2) Supplementary file pone.0059415.s005.doc: Table S1 Helical Data obtained via Circular Dichroism. Shown are A) homo and B) heteromeric samples. […] A ratio higher than 1 is generally indicated evidence that a coiled coil has formed, while a ratio of less than 0.9 is taken to indicate the presence of isolated helices. Shown in column two are the calculated fractional helicities taken from the Molar Residue Ellipticity at […]. Fraction helicity (ƒH) can be calculated as ƒH = (θ222−θc)/(θ222∞−θc) where θ222∞ = (−44000+250*T)*(1−k/Nr) and θc = 2220–(53*T). In these equations the wavelength dependent constant k = 2.4 (at 222 nm), Nr = the number of residues, and T = 20 degrees Celsius (293 K). The 222/208 ratio is used to provide evidence on whether the helices are monomeric or are adopting a quaternary structure. Measured helicity for the original JunWCANDI peptide and for the template on which the hydrocarbon constraints have been introduced. […] The N- and C-capping motifs have been removed for the constrained since they are considered to be largely redundant upon their introduction. (DOC) Click here for additional data file.

Series [2] has as its target T1, cFos (Homo sapiens, UniProt P01100). Nature of the series: Circular dichroism spectra of peptide-cFos mixtures. The series is classed as binding. The following applies: mixture with cFos; for Peptide-cFos Ɵ222/208 (20ºC): CD ratio, 20 °C; for Peptide-cFos Fraction helical (ƒH): CD 222 nm, 20°C, 150 µM total peptide. Here is the method:
as §1
Thermal denaturation data and spectra for the cFos homotypic complex (black), helix constrained peptide (blue), and heteromeric complex (red) were recorded using 200 µL of sample at 150µM total peptide concentration (Figure 4, Figure S1). Next, 100 µL of each solution was mixed and the spectra taken such that the final total peptide concentration was also 150 µM. More experimental procedures can be found in File S1.
as §2
(In general: Circular dichroism is the unequal absorption of left and right circularly polarised light.)

The test system of another series is cJun. Nature of the series: CD spectra and thermal denaturation of peptide-cJun mixtures (specificity). The note with it: equimolar with cJun. It counts as binding. Here is the method:
To establish if the truncated and constrained peptides retained the interaction specificity of the JunWCANDI parent peptide, peptides capable of interacting with cFos were also incubated at equimolar concentrations with cJun and monitored via CD spectra. […] In addition, a dimer exchange experiment was performed for the most helical peptide 24. Spectra for a cJun-peptide solution and a cFos solution should, upon mixing, generate an averaged spectrum if there was no dimer exchange. […] Spectra for both mixtures can be superimposed (Figure S4).
Supplementary file pone.0059415.s002.tiff: Figure S2 Raw thermal melting data for homo and heterodimeric complexes with cJun for constrained peptides 1 , 2 , 8 , 9, 10 , 11, 12, 17, 20, 22, and 24 . […] (TIFF) Click here for additional data file.
Supplementary file pone.0059415.s003.tiff: Figure S3 CD spectra as MRE both in isolation and as a mixture with cJun. From these raw data it is also clear that no interaction is occurring between constrained peptides and cJun. Rather, specta appear as averages of their homodimeric components (i.e. superimpose with the homomeric averages). We observe no heteromeric helical signal (red) that exceeds the average (black dotted line) of cJun (black) and the constrained peptide (blue), that would be anticipated for a non-interacting pair. (TIFF) Click here for additional data file.
Supplementary file pone.0059415.s005.doc: Table S1 Helical Data obtained via Circular Dichroism. Shown are A) homo and B) heteromeric samples. […] A ratio higher than 1 is generally indicated evidence that a coiled coil has formed, while a ratio of less than 0.9 is taken to indicate the presence of isolated helices. Shown in column two are the calculated fractional helicities taken from the Molar Residue Ellipticity at […]. Fraction helicity (ƒH) can be calculated as ƒH = (θ222−θc)/(θ222∞−θc) where θ222∞ = (−44000+250*T)*(1−k/Nr) and θc = 2220–(53*T). […] Measured helicity for the original JunWCANDI peptide and for the template on which the hydrocarbon constraints have been introduced. […]

The next series is described as follows: circular dichroism. The note with it: 10 mM K phosphate, 100 mM KF; pH 7; 20 °C; 150 uM.
Series [3] deals with T1, cFos. Nature of the series: Isothermal Titration Calorimetry (ITC) of peptides with cFos. The following applies: 20°C. It counts as binding. Here is the method: Figure 5 Isothermal Titration Calorimetry (ITC) analysis of leucine zipper domain interactions between constrained peptides and cFos. Shown are isotherms for all ten measureable heterodimers (1, 2, 8, 10, 11, 12, 17, 20, 22, and 24) injected into a cell containinginto cFos. The top and bottom panels show, respectively, raw data after baseline correction. During ITC experiments, approximately 200–600 µM of peptide A was injected in 30–40×5 µl batches from the injection syringe into the cell, which contained 10–40 µM cFos. Both partners were in a 10 mM Potassium Phosphate buffer, 100 mM Potassium Fluoride at pH 7. Experiments were undertaken at 20°C. […]
ITC Measurements - ITC measurements were made using a Microcal VP-ITC instrument with data collected and processed using the Origin 7.0 software package. […] The change in thermal power as a function of each injection was automatically recorded using the Microcal Origin software and the raw data were integrated to yield ITC isotherms of heat release per injection as a function of Fos to Jun Molar ratio (Figure 5). […]
where R is the universal molar gas constant (1.9872 cal·K^-1·mol^-1), T is the absolute temperature in Kelvin (293.15 K) and KD is the dissociation constant of binding with units of mol·L^-1. Finally, the entropic contribution (TΔS) to the free energy of binding was calculated using the derived values of ΔH and ΔGbind.

Where a SMILES comes first, the peptide text is derived from it. Bridges are numbered along the chain shown (N, C = ends). [ ]: non-standard residue; d: D form. Cha = N[C@@H](CC1CCCCC1)C(=O)O

T1 sequence (P01100 whole entry): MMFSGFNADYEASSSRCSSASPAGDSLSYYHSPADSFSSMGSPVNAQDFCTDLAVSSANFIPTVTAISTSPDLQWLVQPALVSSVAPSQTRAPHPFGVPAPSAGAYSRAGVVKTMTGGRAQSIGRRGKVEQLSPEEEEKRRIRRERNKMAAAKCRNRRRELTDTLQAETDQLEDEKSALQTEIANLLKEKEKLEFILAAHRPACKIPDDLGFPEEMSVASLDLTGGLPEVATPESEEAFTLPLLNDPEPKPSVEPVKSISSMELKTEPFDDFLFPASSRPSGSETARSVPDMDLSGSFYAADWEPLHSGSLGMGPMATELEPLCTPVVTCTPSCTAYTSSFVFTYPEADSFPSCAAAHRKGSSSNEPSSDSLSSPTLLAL

For `CC[C@H](C)[C@H](NC(=O)[C@H](Cc1c[nH]cn1)NC(=O)[C@@H]1CC(=O)NCCCC[C@H](NC(=O)[C@H](C)NC(=O)[C@H](CCCCN)NC(=O)[C@H](CO)NC(=O)[C@H](CCCNC(=N)N)NC(=O)[C@H](CC2CCCCC2)NC(=O)[C@@H]2CC(=O)NCCCC[C@H](NC(=O)[C@H](CCCCN)NC(=O)[C@H](CC(C)C)NC(C)=O)C(=O)N[C@@H](CCC(=O)O)C(=O)N[C@@H]([C@@H](C)CC)C(=O)N[C@@H](Cc3ccc(O)cc3)C(=O)N2)C(=O)N[C@@H](CCSC)C(=O)N[C@@H](CC(C)C)C(=O)N[C@@H](CCCNC(=N)N)C(=O)N1)C(=O)N[C@@H](C)C(=O)N[C@@H](CCC(N)=O)C(=O)N[C@@H](CC(C)C)C(N)=O` [compound 17] (Ac-LKKEIYD[Cha]RSKAKMLRDHIAQL-NH2; lactam 3-7, 13-17), in series [1], the “Homotypic Ɵ222/208 (20ºC)” value is listed as 0.91. In addition, the “Fraction helical (ƒH), homotypic” value in series [1] (20°C, 150 µM, pH 7) was determined as 0.42. On cFos [2], the “Peptide-cFos Ɵ222/208 (20ºC)” value amounted to 0.90 and the “Peptide-cFos Fraction helical (ƒH)” value was 0.40. For the same compound, the “interaction with cJun (in words)” value in the series with cJun is recorded as “none of the peptides form a stable interaction with cJun”.

The compound `CC[C@H](C)[C@H](NC(=O)[C@H](Cc1c[nH]cn1)NC(=O)[C@@H]1CC(=O)NCCCC[C@H](NC(=O)[C@H](Cc2ccccc2)NC(=O)[C@H](CCCCN)NC(=O)[C@H](CO)NC(=O)[C@H](CCCNC(=N)N)NC(=O)[C@H](CC(C)C)NC(=O)[C@@H]2CC(=O)NCCCC[C@H](NC(=O)[C@H](CCCCN)NC(=O)[C@H](CC(C)C)NC(C)=O)C(=O)N[C@@H](CCC(=O)O)C(=O)N[C@@H]([C@@H](C)CC)C(=O)N[C@@H](Cc3ccc(O)cc3)C(=O)N2)C(=O)N[C@@H](CCSC)C(=O)N[C@@H](CC(C)C)C(=O)N[C@@H](CCCNC(=N)N)C(=O)N1)C(=O)N[C@@H](C)C(=O)N[C@@H](CCC(N)=O)C(=O)N[C@@H](CC(C)C)C(N)=O` (Ac-LKKEIYDLRSKFKMLRDHIAQL-NH2; lactam 3-7, 13-17) came in with a helicity in “circular dichroism” of 0.37 frac.

With “Ac-ASAAELEERAKTLKAEIYELRSKANMLREHIAQLGAP-NH2 [JunWCANDI, reference compound]”, at cFos [3] (calculated according to TΔS = ΔH−ΔG), the “TΔS [ΔH – ΔG]” value is -6.9 kcal/mol. Also, the ΔH at cFos [3] (pH 7) was -14.8 kcal/mol. Moreover, the “Homotypic Ɵ222/208 (20ºC)” value in series [1] was 0.79. Moreover, in series [1] (from CD spectra, 20°C, 150 µM, pH 7), the “helicity of peptide in isolation” value came to 19%. The “Fraction helical (ƒH), homotypic” value in series [1] (20°C, 150 µM, pH 7) came to 0.19. In addition, at cFos [2], the “Peptide-cFos Ɵ222/208 (20ºC)” value is reported as 0.97 and the “Peptide-cFos Fraction helical (ƒH)” value was 0.42.

The compound `CC[C@H](C)[C@H](NC(=O)[C@H](Cc1c[nH]cn1)NC(=O)[C@@H]1CC(=O)NCCCC[C@H](NC(=O)[C@H](C)NC(=O)[C@H](CCCCN)NC(=O)[C@H](CO)NC(=O)[C@H](CCCNC(=N)N)NC(=O)[C@H](CC(C)C)NC(=O)[C@@H]2CC(=O)NCCCC[C@H](NC(=O)[C@H](CCCCN)NC(=O)[C@H](CC(C)C)NC(C)=O)C(=O)N[C@@H](CCC(=O)O)C(=O)N[C@@H]([C@@H](C)CC)C(=O)N[C@@H](Cc3ccc(O)cc3)C(=O)N2)C(=O)N[C@@H](CCSC)C(=O)N[C@@H](CC(C)C)C(=O)N[C@@H](CCCNC(=N)N)C(=O)N1)C(=O)N[C@@H](C)C(=O)N[C@@H](CCC(N)=O)C(=O)N[C@@H](CC(C)C)C(N)=O` (Ac-LKKEIYDLRSKAKMLRDHIAQL-NH2; lactam 3-7, 13-17) returned a helicity in “circular dichroism” of 0.63 frac.

For “Ac-ASTDTLQAETDQLEDEKYALQTEIANLLKEKEKLGAP-NH2 [cFos]”, in series [1], the “Homotypic Ɵ222/208 (20ºC)” value was 0.59. Besides, the “Fraction helical (ƒH), homotypic” value in series [1] (20°C, 150 µM, pH 7) came out at 0.20.
